# According to patent US12221447B2, “Methods and compositions for drugs to treat ophthalmic diseases” (Duke University, priority 2018, dated 2025):
# Assays:
# [1] = target: T1, CaMKK2 auto-phosphorylation (Homo sapiens, UniProt Q96RR4); assay: HEK293 cells, ionomycin stimulation, Western blot for phospho-CaMKK2; format: cell-based; settings: 10 μM; for inhibition of CaMKK2 auto-phosphorylation (densitometry): 2 hours pre-treatment, ionomycin 0.5 μg/mL 15 minutes; for inhibition of CaMKK2 auto-phosphorylation compared to STO-609: versus STO-609 10 μM
# T1 construct: endogenous in cells; host or cells: HEK293
# Experimental: (§1) Preliminary screening of Compounds EY301-EY305 was performed in vitro in HEK293 cells (all tested at 10 μM). In brief, HEK293 cells were cultured to sub confluence in […] complete media and 1% fetal bovine serum (FBS), incubated at 37° C. in 5% CO2. Cultured cells were then switched to serum-free media overnight prior to initiation of experiments. […] Cells were then stimulated with the calcium ionophore ionomycin (0.5 μg/mL) for 15 minutes, following which the cells were washed, harvested, and lysed for recovery of total protein using standard methods. Following standard protein gel electrophoresis, Western blot was then performed for either phospho-CaMKK2 (FIG. 4A) or phospho-AMPK (FIG. 4B) for each condition. Studies were performed in triplicate.
# [2] = tested on: AMPK phosphorylation; assay: HEK293 cells, ionomycin stimulation, Western blot for phospho-AMPK; format: cell-based; settings: 10 μM; for inhibition of phospho-AMPK (densitometry): 2 hours pre-treatment, ionomycin 0.5 μg/mL 15 minutes; for inhibition of phospho-AMPK compared to STO-609: versus STO-609 10 μM
# Experimental: as §1
# [3] = tested on: wild-type BALB/c mice; assay: NonGLP toxicology, in vivo tolerability of topically administered SMICs; settings: topical 1.5 mg/mL twice daily for 14 days
# Experimental: NonGLP toxicology studies of locally administered candidate SMICs EY1006.A001.B001 and EY1001.A002.B001 was assessed in 2-3-month old wild-type BALB/c mice. assessing local toxicity by clinical assessment and by histopathology. Both compounds were topically administered at 1.5 mg/mL twice daily for 14 days.
# [4] = tested on: OGVHD mouse model; assay: Mouse model of OGVHD, proof-of-concept with topical lead SMICs (Example 11); format: in vivo, mice; settings: for prevention of signs of OGVHD versus vehicle and prednisolone: 1.5 mg/mL topical daily for two weeks, p<0.05 vs vehicle or prednisolone
# Experimental: Preclinical proof-of-concept studies in a mouse model of OGVHD were performed to assess the clinical efficacy of topical administration of the two most promising candidate SMICs identified in Examples 6 and 7, EY1006.A001.B001 and EY1001.A002.B001. […] Briefly, the OGVHD mouse model was initiated by isolation of bone marrow and splenic T cells from 2-3-month old mice C57BL/6J donor mice, and transplantation of isolated bone marrow and T cells to recipient 2-3-month old BALB/c mice, following ablation of recipient bone marrow. Recipient BALB/c mice were then allowed to convalesce for approximately 14 days before initiation of further experimental procedures.
# OGVHD clinical findings include lid margin edema, lid crusting, tear film disruption, conjunctival chemosis, and keratopathy. These findings were clinically graded following one week and two weeks of treatment using a quantitative scoring system adapted from previously published studies (33, 34). […] By contrast, vehicle control-treated eyes had lid margin swelling and scarring with lash and periocular fur loss, eyelid crusting, chemosis, abnormal tear film, and keratopathy. […] For this scoring system and experiment Mild disease was score 0-5, moderate disease was score 6-10 and severe disease was score >10.
# [5] = tested on: experimental OGVHD
# Text: Ocular graft versus host disease (OGVHD), a disease in which T cells and macrophages are known to play key pathogenic roles, represents a model ocular inflammatory disease since A) it is known to share overlapping pathologic and clinical features with other, more common ocular inflammatory diseases (i.e. aqueous tear deficiency, meibomian gland dysfunction, uveitic disease, others); and B) the at-risk population is well defined since it occurs in individuals undergoing allogeneic bone marrow transplant for hematologic malignancies, autoimmune diseases, and other disorders. As such, experimental models of OGVHD represent attractive systems in which to study the therapeutic potential of targeting and inhibiting CaMKK2 for ophthalmic diseases. […] In brief, 2-3-month old mice of C57BL/6 and BALB/c strains are used for this model. C57BL/6 mice are sacrificed, following which RPMI-1640 medium is flushed in the diaphyseal channel of both recovered tibias and femurs. […]
# Following BMT+T cell transfer, recipient BALB/c mice were allowed to convalesce for 14 days prior to initiation of experimental procedures. […] At the conclusion of the treatment period, eyes were then graded (in masked fashion) for signs of OGVHD and scored according to a modified clinical grading system (33, 34). […]
# [6] = with sonication; cited from earlier work
# [7] = in vivo; cited from earlier work
# [8] = target: T2, aryl hydrocarbon receptors (Homo sapiens, UniProt P35869); settings: suspected off-target effect; cited from earlier work
# T2 sequence (P35869 11-848): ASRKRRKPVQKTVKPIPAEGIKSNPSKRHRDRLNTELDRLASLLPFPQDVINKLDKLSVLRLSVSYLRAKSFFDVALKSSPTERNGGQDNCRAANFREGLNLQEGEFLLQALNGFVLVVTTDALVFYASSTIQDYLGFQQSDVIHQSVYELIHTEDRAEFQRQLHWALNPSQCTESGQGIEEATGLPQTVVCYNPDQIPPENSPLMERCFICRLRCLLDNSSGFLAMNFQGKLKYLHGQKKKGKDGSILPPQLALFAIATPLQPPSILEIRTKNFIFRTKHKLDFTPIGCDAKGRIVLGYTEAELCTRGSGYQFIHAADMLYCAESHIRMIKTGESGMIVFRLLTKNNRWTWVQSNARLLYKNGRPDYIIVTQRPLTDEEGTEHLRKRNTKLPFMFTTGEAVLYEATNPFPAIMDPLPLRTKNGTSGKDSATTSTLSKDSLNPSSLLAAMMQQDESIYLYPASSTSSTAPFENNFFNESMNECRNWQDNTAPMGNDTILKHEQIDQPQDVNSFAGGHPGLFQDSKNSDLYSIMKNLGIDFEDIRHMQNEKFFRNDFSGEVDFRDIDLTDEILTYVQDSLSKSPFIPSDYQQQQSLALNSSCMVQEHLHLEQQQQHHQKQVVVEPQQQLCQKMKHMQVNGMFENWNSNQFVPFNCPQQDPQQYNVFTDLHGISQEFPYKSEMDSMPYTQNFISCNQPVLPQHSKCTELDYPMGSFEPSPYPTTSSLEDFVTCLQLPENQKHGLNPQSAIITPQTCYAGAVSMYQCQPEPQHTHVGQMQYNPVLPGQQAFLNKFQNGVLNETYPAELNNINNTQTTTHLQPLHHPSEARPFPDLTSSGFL
# T1 sequence (Q96RR4 whole entry): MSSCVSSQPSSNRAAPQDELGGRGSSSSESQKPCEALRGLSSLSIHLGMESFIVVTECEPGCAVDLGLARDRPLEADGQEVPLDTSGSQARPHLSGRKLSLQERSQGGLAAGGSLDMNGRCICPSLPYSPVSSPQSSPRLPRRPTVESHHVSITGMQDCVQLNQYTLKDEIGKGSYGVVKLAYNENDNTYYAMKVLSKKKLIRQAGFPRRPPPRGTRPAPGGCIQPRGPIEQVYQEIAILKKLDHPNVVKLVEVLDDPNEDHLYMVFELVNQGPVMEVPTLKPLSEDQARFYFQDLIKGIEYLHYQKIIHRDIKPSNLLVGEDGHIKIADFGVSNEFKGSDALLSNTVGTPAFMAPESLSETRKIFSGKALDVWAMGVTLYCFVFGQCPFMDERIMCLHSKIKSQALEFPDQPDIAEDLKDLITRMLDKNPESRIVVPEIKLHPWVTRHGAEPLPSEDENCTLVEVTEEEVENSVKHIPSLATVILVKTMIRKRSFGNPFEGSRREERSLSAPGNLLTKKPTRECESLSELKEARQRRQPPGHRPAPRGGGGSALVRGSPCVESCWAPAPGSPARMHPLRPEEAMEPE
Structure (SMILES),inhibition of CaMKK2 auto-phosphorylation (densitometry) [1],inhibition of CaMKK2 auto-phosphorylation compared to STO-609 [1],inhibition of phospho-AMPK (densitometry) [2],inhibition of phospho-AMPK compared to STO-609 [2],prevention of signs of OGVHD versus vehicle and prednisolone [4],further results
O=C(O)c1ccc2c(c1)[nH]c(=O)n1c3ccccc3nc21 [Compound 1],robust inhibition,more effective as compared to STO-609,,,,
Cn1c(=O)n2c3ccccc3nc2c2ccc(C(=O)O)cc21 [Compound 3],robust inhibition,,partial inhibition,comparable to STO-609,,
CCn1c(=O)n2c3ccccc3nc2c2ccc(C(=O)O)cc21 [Compound 4],robust inhibition,more effective as compared to STO-609,partial inhibition,comparable to STO-609,,
CC(C)Cn1c(=O)n2c3ccccc3nc2c2ccc(C(=O)O)cc21 [Compound 5],robust inhibition,,partial inhibition,comparable to STO-609,,
O=C(O)c1ccc2c(c1)n(CCF)c(=O)n1c3ccccc3nc21 [Compound 7],,,,,superior to vehicle and prednisolone,"systemic toxicity [3]: no evidence of failure to thrive or mortality; severity of clinical OGVHD findings ([4]; 1.5 mg/mL topical daily, from day 14 post-BMT for two weeks, n=5): reduced severity of clinical OGVHD findings with efficacy similar to STO-609"
"O=C(O)c1ccc2c3c1cccc3c(=O)n1c3ccccc3nc21 [STO-609, 7-oxo-7H-benzimidazo[2,1-a]benz[de]isoquinoline-3-carboxylic acid]",,,,,superior to vehicle and prednisolone,"severity of OGVHD, median score ([5]; STO-609 1.5 mg/mL local ocular, daily for 2 weeks from day 14 post-BMT, vehicle median score 17): 5; reduction in OGVHD score ([5]; stated as demonstrated and established for STO-609): 50%; maximum concentration in DMSO [6]: 10 mM; oral bioavailability [7]: poor oral bioavailability; off-target effect on aryl hydrocarbon receptors [8]: activation of aryl hydrocarbon receptors"
